The source of these data is US20240139211A1, “METHODS AND COMPOSITIONS FOR TREATING AMYOTROPHIC LATERAL SCLEROSIS” (Amylyx Pharmaceuticals, Inc., priority 2022, published 2024).

In one series the target is OATP1B1 (Homo sapiens, UniProt Q9Y6L6). In words: in vitro.
The next series concerns the target T1, OCT1 (Homo sapiens, UniProt O15245).
T1 sequence (O15245 1-554): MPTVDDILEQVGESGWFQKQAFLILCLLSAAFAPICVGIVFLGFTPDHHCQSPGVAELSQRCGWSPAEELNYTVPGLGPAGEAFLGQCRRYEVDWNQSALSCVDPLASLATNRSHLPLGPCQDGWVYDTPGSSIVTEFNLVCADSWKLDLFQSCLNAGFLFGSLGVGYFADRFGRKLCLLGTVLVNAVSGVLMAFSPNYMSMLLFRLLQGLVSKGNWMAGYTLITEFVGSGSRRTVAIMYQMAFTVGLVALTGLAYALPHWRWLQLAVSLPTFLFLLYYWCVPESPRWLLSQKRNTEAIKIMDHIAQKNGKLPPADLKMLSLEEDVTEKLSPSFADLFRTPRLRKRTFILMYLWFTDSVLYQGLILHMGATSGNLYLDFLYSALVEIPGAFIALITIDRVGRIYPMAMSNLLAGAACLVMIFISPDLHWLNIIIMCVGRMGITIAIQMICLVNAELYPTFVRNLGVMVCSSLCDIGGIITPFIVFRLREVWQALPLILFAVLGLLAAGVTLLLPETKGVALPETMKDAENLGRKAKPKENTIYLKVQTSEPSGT
In words: Inhibitor of OCT1, probe substrate uptake. The note with it: two concentrations per test article.

The test system of a further series is CYP2B6 mRNA. Briefly: in vitro. The note with it: human.
The test system of the next series is P-gp and BCRP. Briefly: P-gp and BCRP substrate assessment in C2BBe1 monolayers. The protocol:
The P-gp and BCRP substrate assessment was conducted in C2BBe1 cell monolayers. […] LY was co-dosed with each dosing solution at a nominal concentration of 200 μM.
The cell culture medium was aspirated, and the cell monolayers were rinsed once with HBSSg_7.4. […] For receiver samples, aliquots (300 μL) were taken at pre-selected time points. […] For donor samples, aliquots (50 μL) were taken at pre-selected time points without replacement.

Series [1] addresses CYPs in human liver microsomes (HLM) (Homo sapiens, UniProt P11712). Briefly: CYP reaction phenotyping in HLM with chemical inhibitors (% remaining). The note with it: +NADPH +sulfaphenazole (CYP2C9).
Series [2] deals with CYPs in human liver microsomes (HLM) (Homo sapiens, UniProt P10635). Described as above. The settings on record: +NADPH +quinidine (CYP2D6).
Chain of CYPs in human liver microsomes (HLM) (Homo sapiens, UniProt P10635) (P10635 whole entry): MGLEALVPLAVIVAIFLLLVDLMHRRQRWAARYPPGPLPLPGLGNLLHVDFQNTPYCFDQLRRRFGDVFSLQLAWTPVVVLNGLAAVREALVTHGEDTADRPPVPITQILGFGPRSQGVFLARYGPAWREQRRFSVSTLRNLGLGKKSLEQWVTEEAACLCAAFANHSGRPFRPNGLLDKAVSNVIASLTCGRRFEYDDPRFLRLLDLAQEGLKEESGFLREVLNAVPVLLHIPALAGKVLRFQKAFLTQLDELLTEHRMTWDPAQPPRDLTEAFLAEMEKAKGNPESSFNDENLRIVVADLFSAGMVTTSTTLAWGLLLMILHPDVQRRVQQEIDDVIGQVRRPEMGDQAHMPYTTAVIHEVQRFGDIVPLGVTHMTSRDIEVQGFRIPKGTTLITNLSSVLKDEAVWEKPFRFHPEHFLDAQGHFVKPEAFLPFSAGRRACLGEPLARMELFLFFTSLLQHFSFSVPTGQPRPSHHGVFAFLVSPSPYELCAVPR
Series [3] relates to CYPs in human liver microsomes (HLM). Described as above.
Series [4] addresses CYPs in human liver microsomes (HLM) (Homo sapiens, UniProt P33261). The description is as above. The settings on record: +NADPH +N3B (CYP2C19).
The target in series [5] is T2, CYPs in human liver microsomes (HLM) (Homo sapiens, UniProt P05177).
T2 sequence (P05177 1-516): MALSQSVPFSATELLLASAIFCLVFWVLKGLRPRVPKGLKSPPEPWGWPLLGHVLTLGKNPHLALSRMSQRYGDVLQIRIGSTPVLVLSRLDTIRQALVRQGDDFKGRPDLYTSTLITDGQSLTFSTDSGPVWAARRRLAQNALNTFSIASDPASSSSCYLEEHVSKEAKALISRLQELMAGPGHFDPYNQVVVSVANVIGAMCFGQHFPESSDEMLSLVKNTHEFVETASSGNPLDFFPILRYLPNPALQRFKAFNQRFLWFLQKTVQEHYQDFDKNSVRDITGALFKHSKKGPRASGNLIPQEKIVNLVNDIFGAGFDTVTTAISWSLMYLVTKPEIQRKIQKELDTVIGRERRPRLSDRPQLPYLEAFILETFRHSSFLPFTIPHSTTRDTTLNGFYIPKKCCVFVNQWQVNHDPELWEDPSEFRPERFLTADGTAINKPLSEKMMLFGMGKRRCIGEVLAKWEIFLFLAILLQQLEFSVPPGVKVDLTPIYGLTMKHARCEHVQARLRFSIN
The description is as above. The settings on record: +NADPH +furafylline (CYP1A2), pre-incubated.

A short description of series [6]: Chemical stability in HBSSg_7.4 and HBSS_8.5. It is filed as physicochemical. The protocol: At pre-determined time points, an equal volume of acetonitrile with internal standard was added to each vial, and the mixture was placed at 4° C. until the end of the assay. The peak areas of the test article and IS of each sample were determined by LC-MS/MS, and the ratios of the peak areas (analyte:IS) were calculated.

Setting [7] is: 1.62 μM TUDCA (Solution 3), C2BBe1 cells, average.
Where [8] appears, read: 1.62 μM TUDCA (Solution 3), C2BBe1 cells, single replicates.
The mark [9] stands for this setting: 16.2 μM TUDCA (Solution 2), C2BBe1 cells, average.
[10] abbreviates: 16.2 μM TUDCA (Solution 2), C2BBe1 cells, single replicates.
Setting [11] is: […] TUDCA (Solution 1), C2BBe1 cells, average.
Where [12] appears, read: […] TUDCA (Solution 4), C2BBe1 cells, average.

Values joined by “and” are separate entries in the source; they are usually repeats but may differ in a detail not shown here. Equal values may be shown once.

Chain of CYPs in human liver microsomes (HLM) (Homo sapiens, UniProt P33261) (P33261 whole entry): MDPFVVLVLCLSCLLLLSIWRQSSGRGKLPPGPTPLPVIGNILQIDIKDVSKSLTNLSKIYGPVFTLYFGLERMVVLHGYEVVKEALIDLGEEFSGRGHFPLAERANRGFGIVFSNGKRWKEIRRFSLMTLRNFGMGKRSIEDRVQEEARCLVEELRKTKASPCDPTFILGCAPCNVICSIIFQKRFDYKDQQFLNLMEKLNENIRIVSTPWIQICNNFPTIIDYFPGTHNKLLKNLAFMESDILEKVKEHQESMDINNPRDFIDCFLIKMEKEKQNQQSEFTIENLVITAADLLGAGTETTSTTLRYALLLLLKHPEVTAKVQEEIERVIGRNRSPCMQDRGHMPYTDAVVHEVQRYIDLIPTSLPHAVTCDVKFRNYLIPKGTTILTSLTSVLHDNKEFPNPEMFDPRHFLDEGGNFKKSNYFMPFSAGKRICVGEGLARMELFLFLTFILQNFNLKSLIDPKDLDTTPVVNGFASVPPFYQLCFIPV
Chain of CYPs in human liver microsomes (HLM) (Homo sapiens, UniProt P11712) (P11712 whole entry): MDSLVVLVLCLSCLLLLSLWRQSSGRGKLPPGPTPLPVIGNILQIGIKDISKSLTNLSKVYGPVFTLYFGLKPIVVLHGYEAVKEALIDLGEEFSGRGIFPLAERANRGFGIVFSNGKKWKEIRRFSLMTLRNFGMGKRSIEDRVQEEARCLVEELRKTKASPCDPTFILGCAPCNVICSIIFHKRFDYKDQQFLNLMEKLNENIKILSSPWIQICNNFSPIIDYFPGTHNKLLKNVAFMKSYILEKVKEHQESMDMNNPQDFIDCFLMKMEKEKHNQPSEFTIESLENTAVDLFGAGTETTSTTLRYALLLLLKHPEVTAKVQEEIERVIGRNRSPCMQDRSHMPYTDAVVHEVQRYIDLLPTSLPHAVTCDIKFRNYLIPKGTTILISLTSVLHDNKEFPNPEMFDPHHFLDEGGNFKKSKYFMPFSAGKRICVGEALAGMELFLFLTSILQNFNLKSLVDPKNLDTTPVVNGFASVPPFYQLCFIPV
Chain of OATP1B1 (Q9Y6L6 whole entry): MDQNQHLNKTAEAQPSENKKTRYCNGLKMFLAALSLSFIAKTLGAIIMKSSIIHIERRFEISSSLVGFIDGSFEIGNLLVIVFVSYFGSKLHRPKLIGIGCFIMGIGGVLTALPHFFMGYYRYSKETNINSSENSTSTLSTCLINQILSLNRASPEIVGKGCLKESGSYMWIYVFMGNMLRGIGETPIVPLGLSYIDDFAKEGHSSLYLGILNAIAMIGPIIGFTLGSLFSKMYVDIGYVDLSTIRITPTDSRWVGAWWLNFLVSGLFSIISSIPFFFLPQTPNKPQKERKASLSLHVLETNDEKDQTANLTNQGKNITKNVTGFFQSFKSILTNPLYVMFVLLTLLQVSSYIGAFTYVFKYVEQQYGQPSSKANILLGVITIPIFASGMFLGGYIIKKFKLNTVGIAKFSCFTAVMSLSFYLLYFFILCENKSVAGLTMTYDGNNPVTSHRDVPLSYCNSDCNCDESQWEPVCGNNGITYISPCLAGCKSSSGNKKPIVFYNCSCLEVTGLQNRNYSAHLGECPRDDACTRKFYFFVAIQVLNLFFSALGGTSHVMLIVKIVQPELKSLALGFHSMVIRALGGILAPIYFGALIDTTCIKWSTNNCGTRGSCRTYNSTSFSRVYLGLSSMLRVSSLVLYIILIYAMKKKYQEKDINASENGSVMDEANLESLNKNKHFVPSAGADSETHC

Broadly, the EC50 is the concentration that produces a half-maximal response. A low value points to higher potency in that assay. In general, fold induction refers to the signal under treatment as a multiple of the control signal. As for `C[C@H](CCC(=O)NCC(=O)O)[C@H]1CC[C@H]2[C@@H]3[C@@H](O)C[C@@H]4C[C@H](O)CC[C@]4(C)[C@H]3CC[C@]12C` [Glycoursodeoxycholic acid, glycoursodeoxycholic acid], the potency estimated from few doses at OATP1B1 is around 10 µM. On OCT1, the “Inhibition of OCT1” value is on record as “did not inhibit” and the “Inhibitor of OCT1” value is recorded as “No”. In the series with CYP2B6 mRNA (hepatocyte cultures), this compound showed a concentration giving a half-maximal response (EC50) at 72 h of 1.74 µM and a fold induction at 72 h of 5.83.
`O=C(O)Cc1ccccc1` [Phenylacetic acid, phenylacetic acid]: the potency estimated from few doses at OATP1B1 is above 7500 µM. At OCT1, the “Inhibition of OCT1” value is reported as “did not inhibit” and the “Inhibitor of OCT1” value was “No”. Moreover, a half-maximal response in the series on CYP2B6 mRNA (EC50 at 72 h) required 19.5 µM.
Take tauroursodeoxycholic acid [TUDCA]: the “Papp AP-to-BL” value in the series with P-gp and BCRP (setting [7]) is 8.32 10^−6 cm/s; in the series with P-gp and BCRP (setting [8]), 9.59 10^−6 cm/s and 7.25 10^−6 cm/s and 8.12 10^−6 cm/s; in the series on P-gp and BCRP (setting [9]) it was 2.00 10^−6 cm/s; in the series on P-gp and BCRP (setting [10]) it was 1.19 10^−6 cm/s and 2.71 10^−6 cm/s and 2.08 10^−6 cm/s; in the series on P-gp and BCRP (setting [11]) it was 5.92 10^−6 cm/s; in the series on P-gp and BCRP (setting [12]), 7.11 10^−6 cm/s. Also, the “Papp BL-to-AP” value is 1.91 10^−6 cm/s in the series with P-gp and BCRP (setting [7]); 1.75 10^−6 cm/s and 1.84 10^−6 cm/s with P-gp and BCRP (setting [8]); 0.610 10^−6 cm/s with P-gp and BCRP (setting [9]); 0.553 10^−6 cm/s and 0.714 10^−6 cm/s and 0.561 10^−6 cm/s in the series with P-gp and BCRP (setting [10]); 2.15 10^−6 cm/s with P-gp and BCRP (Caco-2); 3.00 10^−6 cm/s in the series with P-gp and BCRP (setting [11]). Also, the “Papp BL-to-AP” value with P-gp and BCRP (setting [12]) is 2.14 10^−6 cm/s. Also, the “Inhibition of OCT1” value at OCT1 is “did not inhibit”. Moreover, on OCT1, the “Inhibitor of OCT1” value is recorded as “No”. The “% remaining of TA in HLM” value amounted to 96.9% in series [1] (10 min); 92.8% in series [1] (20 min); 95.0% in series [1] (30 min); 95.3% in series [1] (60 min); 110% in series [2] (10 min); 99.7% in [2] (20 min). Besides, the “% remaining of TA in HLM” value in series [2] (60 min) amounted to 87.2%; in [3] (+NADPH +ketoconazole (CYP3A), 10 min), 110%; in series [3] (+NADPH +ketoconazole (CYP3A), 20 min), 108%; in series [3] (+NADPH +ketoconazole (CYP3A), 30 min), 94.1%; in [3] (Maximum Metabolism-1: +NADPH −inhibitor, pre-incubated, 5 min), 112%; in series [3] (Maximum Metabolism-1: +NADPH −inhibitor, pre-incubated, 10 min), 126%. The “% remaining of TA in HLM” value in series [3] (Maximum Metabolism-1: +NADPH −inhibitor, pre-incubated, 20 min) came out at 123%; in [3] (Maximum Metabolism-1: +NADPH −inhibitor, pre-incubated, 30 min), 121%; in [3] (Maximum Metabolism-1: +NADPH −inhibitor, pre-incubated, 60 min), 121%; in series [3] (Maximum Metabolism-2: +NADPH −inhibitor, 5 min), 103%; in [3] (Maximum Metabolism-2: +NADPH −inhibitor, 10 min), 103%; in [3] (Maximum Metabolism-2: +NADPH −inhibitor, 20 min), 103%. In addition, the “% remaining of TA in HLM” value turned out to be 102% in [3] (Maximum Metabolism-2: +NADPH −inhibitor, 30 min); 96.9% in series [3] (Maximum Metabolism-2: +NADPH −inhibitor, 60 min); 117% in series [3] (Negative Control-1: −NADPH −inhibitor, pre-incubated, 5 min); 129% in series [3] (Negative Control-1: −NADPH −inhibitor, pre-incubated, 10 min); 119% in series [3] (Negative Control-1: −NADPH −inhibitor, pre-incubated, 20 min); 130% in series [3] (Negative Control-1: −NADPH −inhibitor, pre-incubated, 30 min). For the same compound, the “% remaining of TA in HLM” value in series [3] (Negative Control-1: −NADPH −inhibitor, pre-incubated, 60 min) stood at 132%; in series [3] (Negative Control-2: −NADPH −inhibitor, 5 min), 104%; in series [3] (Negative Control-2: −NADPH −inhibitor, 10 min), 104%; in series [3] (Negative Control-2: −NADPH −inhibitor, 20 min), 105%; in series [3] (Negative Control-2: −NADPH −inhibitor, 30 min) it was 106%; in series [3] (Negative Control-2: −NADPH −inhibitor, 60 min), 106%. In addition, the “% remaining of TA in HLM” value came to 106% in series [4] (5 min); 93.0% in series [4] (10 min); 93.1% in [4] (20 min); 92.1% in series [4] (30 min); 94.5% in series [4] (60 min); 123% in [5] (5 min). Further, the “% remaining of TA in HLM” value stood at 123% in series [5] (10 min), 121% in series [5] (20 min), 120% in series [5] (30 min) and 128% in [5] (60 min). The “Metabolism by the major CYPs in HLM” value in series [3] is “neither PB nor TUDCA is metabolized”. In addition, in series [6] (0.5 μM, 37° C., HBSSg_7.4 and HBSS_8.5), the “Chemical stability in the tested matrices” value is on record as “appeared to be stable”. The “Percent of the 0-minute value” in [6] (HBSSg_7.4, 0 minutes) is 100%; in series [6] (HBSSg_7.4, 120 minutes) it was 101%; in series [6] (HBSSg_7.4, Overnight (~1020-[…])), 95.3%; in [6] (HBSSg_8.5, 0 minutes) it was 100%; in series [6] (HBSSg_8.5, 120 minutes), 90.8%; in [6] (HBSSg_8.5, Overnight (~1020-[…])) it was 96.5%.
